Patent US9663519B2, “Compounds useful as inhibitors of ATR kinase” (Vertex Pharmaceuticals Incorporated, priority 2013, dated 2017)

Experiments:
full-length ATR = full-length ATR (Homo sapiens (Human), UniProt Q13535); assay: ATR Inhibition Assay (radioactive-phosphate incorporation); assay type: biochemical; conditions: Ki(app); 5 nM full-length ATR, 10 μM ATP, 25° C.
Procedure: Compounds were screened for their ability to inhibit ATR kinase using a radioactive-phosphate incorporation assay. Assays were carried out in a mixture of 50 mM Tris/HCl (pH 7.5), 10 mM MgCl2 and 1 mM DTT. Final substrate concentrations were 10 μM [γ-33P]ATP (3 mCi 33P ATP/mmol ATP, Perkin Elmer) and 800 μM target peptide (ASELPASQPQPFSAKKK (SEQ. ID NO: 1)).
Assays were carried out at 25° C. in the presence of 5 nM full-length ATR. An assay stock buffer solution was prepared containing all of the reagents listed above, with the exception of ATP and the test compound of interest. 13.5 μL of the stock solution was placed in a 96 well plate followed by addition of 2 μL of DMSO stock containing serial dilutions of the test compound (typically starting from a final concentration of 15 μM with 3-fold serial dilutions) in duplicate (final DMSO concentration 7%). The plate was pre-incubated for 10 minutes at 25° C. and the reaction initiated by addition of 15 μL [γ-33P]ATP (final concentration 10 μM).
The reaction was stopped after […] by the addition of 30 μL 0.1M phosphoric acid containing 2 mM ATP. A multiscreen phosphocellulose filter 96-well plate (Millipore, Cat no. MAPHN0B50) was pretreated with 100 μL 0.2M phosphoric acid prior to the addition of 45 μL of the stopped assay mixture. The plate was washed with 5×200 μL 0.2M phosphoric acid. After drying, 100 μL Optiphase ‘SuperMix’ liquid scintillation cocktail (Perkin Elmer) was added to the well prior to scintillation counting (1450 Microbeta Liquid Scintillation Counter, Wallac).
After removing mean background values for all of the data points, Ki(app) data were calculated from non-linear regression analysis of the initial rate data using the Prism software package (GraphPad Prism version 3.0cx for Macintosh, GraphPad Software, San Diego Calif., USA).

[1] = tested on: HCT116 colorectal cancer cells; assay: Cisplatin Sensitization Assay (96 h cell viability MTS); assay type: cell-based; conditions: Cisplatin sensitization value: concentration of compound required to reduce the IC50 of Cisplatin alone by at least 3-fold; HCT116, 96 h MTS
Procedure: Compounds can be screened for their ability to sensitize HCT116 colorectal cancer cells to Cisplatin using a 96 h cell viability (MTS) assay. […] Compounds and Cisplatin are then both added simultaneously to the cell media in 2-fold serial dilutions from a top final concentration of 10 μM as a full matrix of concentrations in a final cell volume of 200 μl, and the cells are then incubated at 37° C. in 5% CO2. After 96 h, 40 μl of MTS reagent (Promega G358a) is added to each well and the cells are incubated for 1 h at 37° C. in 5% CO2. Finally, absorbance is measured at 490 nm using a SpectraMax Plus 384 reader (Molecular Devices) and the concentration of compound required to reduce the IC50 of Cisplatin alone by at least 3-fold (to 1 decimal place) can be reported.

full-length ATR, sequence (Q13535 whole entry): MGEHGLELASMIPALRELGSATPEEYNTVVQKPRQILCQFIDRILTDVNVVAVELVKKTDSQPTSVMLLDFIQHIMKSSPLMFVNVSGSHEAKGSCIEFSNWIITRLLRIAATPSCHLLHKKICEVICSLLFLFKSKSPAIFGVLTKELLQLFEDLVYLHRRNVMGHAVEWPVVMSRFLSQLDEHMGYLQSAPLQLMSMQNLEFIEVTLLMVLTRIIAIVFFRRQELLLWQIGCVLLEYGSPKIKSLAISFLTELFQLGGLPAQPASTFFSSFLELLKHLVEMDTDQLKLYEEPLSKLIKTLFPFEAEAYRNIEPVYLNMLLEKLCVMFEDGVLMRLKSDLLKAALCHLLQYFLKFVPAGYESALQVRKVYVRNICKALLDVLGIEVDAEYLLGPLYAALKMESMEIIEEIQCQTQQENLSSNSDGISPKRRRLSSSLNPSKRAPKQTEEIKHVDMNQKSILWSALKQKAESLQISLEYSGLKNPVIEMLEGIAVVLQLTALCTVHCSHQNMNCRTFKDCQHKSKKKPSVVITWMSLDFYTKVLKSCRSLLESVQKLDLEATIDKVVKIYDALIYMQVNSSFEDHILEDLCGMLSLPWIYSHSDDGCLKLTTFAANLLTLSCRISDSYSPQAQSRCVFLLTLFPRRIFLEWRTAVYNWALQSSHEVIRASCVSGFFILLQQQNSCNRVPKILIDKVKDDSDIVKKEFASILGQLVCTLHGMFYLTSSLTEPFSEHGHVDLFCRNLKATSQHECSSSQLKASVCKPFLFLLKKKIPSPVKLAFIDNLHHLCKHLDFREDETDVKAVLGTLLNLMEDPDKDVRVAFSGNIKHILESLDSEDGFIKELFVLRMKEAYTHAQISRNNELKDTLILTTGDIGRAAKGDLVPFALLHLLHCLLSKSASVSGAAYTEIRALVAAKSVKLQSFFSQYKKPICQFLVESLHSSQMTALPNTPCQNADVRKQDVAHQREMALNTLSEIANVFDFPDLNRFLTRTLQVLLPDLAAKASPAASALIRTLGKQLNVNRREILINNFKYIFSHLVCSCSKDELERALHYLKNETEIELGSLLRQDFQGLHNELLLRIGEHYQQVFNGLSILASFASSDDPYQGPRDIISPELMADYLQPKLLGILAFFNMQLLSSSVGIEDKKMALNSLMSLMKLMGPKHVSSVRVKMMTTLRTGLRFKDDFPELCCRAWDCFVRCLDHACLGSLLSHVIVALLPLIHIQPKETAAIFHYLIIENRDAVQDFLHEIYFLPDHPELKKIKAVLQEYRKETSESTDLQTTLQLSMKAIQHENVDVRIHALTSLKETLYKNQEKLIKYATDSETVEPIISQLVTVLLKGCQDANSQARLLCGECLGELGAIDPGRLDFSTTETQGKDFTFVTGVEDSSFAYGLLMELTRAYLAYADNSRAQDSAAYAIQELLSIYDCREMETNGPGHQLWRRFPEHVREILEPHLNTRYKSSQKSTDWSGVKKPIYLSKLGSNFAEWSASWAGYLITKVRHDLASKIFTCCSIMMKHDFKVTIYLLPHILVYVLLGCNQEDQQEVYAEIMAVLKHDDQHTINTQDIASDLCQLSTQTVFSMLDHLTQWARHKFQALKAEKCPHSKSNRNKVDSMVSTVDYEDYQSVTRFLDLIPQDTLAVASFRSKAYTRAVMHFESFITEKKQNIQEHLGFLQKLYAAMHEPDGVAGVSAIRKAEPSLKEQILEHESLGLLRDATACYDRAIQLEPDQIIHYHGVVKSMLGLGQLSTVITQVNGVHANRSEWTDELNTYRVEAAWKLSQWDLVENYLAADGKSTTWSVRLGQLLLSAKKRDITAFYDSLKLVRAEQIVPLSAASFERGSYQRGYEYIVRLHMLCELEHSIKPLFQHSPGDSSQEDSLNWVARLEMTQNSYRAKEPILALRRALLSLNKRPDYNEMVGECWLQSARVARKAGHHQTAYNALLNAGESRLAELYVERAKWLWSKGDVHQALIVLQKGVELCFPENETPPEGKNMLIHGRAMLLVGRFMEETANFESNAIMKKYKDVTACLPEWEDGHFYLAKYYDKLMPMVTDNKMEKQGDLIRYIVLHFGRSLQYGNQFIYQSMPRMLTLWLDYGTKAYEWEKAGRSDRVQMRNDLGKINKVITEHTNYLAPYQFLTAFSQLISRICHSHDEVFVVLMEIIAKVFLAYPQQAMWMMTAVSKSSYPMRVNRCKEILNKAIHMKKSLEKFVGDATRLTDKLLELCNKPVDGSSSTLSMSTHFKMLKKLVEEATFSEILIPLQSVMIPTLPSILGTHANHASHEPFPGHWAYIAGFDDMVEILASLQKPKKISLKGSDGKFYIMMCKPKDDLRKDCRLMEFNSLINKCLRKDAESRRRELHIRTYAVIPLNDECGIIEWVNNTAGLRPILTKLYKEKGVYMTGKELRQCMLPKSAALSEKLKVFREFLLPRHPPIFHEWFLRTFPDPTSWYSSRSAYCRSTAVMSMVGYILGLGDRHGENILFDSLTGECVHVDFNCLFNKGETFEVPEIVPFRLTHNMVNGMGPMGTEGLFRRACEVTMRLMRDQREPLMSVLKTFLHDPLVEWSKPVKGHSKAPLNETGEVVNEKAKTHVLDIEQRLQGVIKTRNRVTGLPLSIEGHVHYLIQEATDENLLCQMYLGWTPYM

Ki (full-length ATR): 0.01 to 1 µM
SMILES: Cc1nsc(NC(=O)c2c(N)nn3cc4c(nc23)CCN(C2COC2)C4)c1C1CC1 [Compound I-33, 2-amino-N-(4-cyclopropyl-3-methylisothiazol-5-yl)-7-(oxetan-3-yl)-5,6,7,8-tetrahydropyrazolo[1,5-a]pyrido[4,3-d]pyrimidine-3-carboxamide]
Synergy with Cisplatin [1]: +++ (Cisplatin sensitization value of <0.02 μM)
